Measured values as given in patent US11945794B2, “Nuclear transport modulators and uses thereof” (Karyopharm Therapeutics Inc., priority 2013, dated 2024).

How the values were obtained:
Z-138 xenograft = test: Z-138 mantle cell lymphoma xenograft model; type: in vivo, mouse
Description: Z-138 (ATCC #CRL-3001) mantle cell lymphoma cells were obtained from ATCC. These cells were grown in IMEM medium supplemented with 10% horse serum, 1% penicillin and streptomycin, and 2 mM L-glutamine. Cells were sub-cultured by dilution at a ratio of 1:5 to 1:10. Z-138 cells were harvested by centrifugation and counted using a hemocytometer. Cells were resuspended in PBS at a concentration of 2×10^8 cells per mL. Cells were placed on ice and mixed with an equal volume of Matrigel (BD Biosciences CB-40234). This mixture was kept on ice and injected into the left flank of mice in a volume of 0.2 mL, equivalent to 2×10^7 cells per mouse. Thirty-two (32) CB-17 SCID mice were inoculated subcutaneously in the left flank with 2×10^7 Z-138 cells. Treatment was initiated when the tumors reached a mean volume of 125.2 mm^3. Mice were allocated to four (4) groups of eight (8) mice such that mean tumor volume in each group was within the range of 106.5 to 138.8 mm^3. […] Animal weights and conditions were recorded daily, and tumors were measured on Mondays, Wednesdays and Fridays.

MDA-MB-468 xenograft = MDA-MB-468 xenograft model; type: in vivo, mouse; details: 10 mg/kg PO once daily, CB-17 SCID mice, compared to vehicle
Description: MDA-MB-468 (ATCC #HTB-102) breast adenocarcinoma cells were obtained from ATCC. These cells were grown in high glucose DMEM medium supplemented with 10% fetal bovine serum, 1% penicillin and streptomycin, and 2 mM L-Glutamine. Cells were sub-cultured by dilution at a ratio of 1:4. MDA-MB-468 cells were harvested by trypsinization and counted using a hemocytometer. Cells were resuspended in PBS at a concentration of 4×10^8 cells per mL. Cells were placed on ice and mixed with an equal volume of Matrigel (BD Biosciences CB-40234). Twenty-two (22) CB-17 SCID mice were inoculated sub-cutaneously in the left flank with 4×10^7 MDA-MB-468 cells. Treatment was initiated when the tumors reached a mean volume of ˜100 mm^3. […] Animals' weights and condition were recorded daily, and tumors were measured on Mondays, Wednesdays, and Fridays.

U87MG spheroids = test: Glioblastoma spheroid assay; type: cell-based; details: 1 μM, U87MG spheroids in Matrigel, compared with control
Description: (§1) Cells (U87MG and U251MG) were detached and re-suspended at 1×10^5 cells/mL. 5,000 cells were loaded into a hanging drop plate (3D Biomatrix Cat. No.: HDP1096) and incubated for 5 days (37° C.; 5% CO2) to form spheroids. 300 μL of Matrix Gel (Corning Matrigel Cat #354234; Lot #3330622) were plated per well in a 24-well plate and incubated for 30 minutes. Spheroids were removed from the hanging drop plate and seeded into the […]™ (1 spheroid per well). Spheroids were incubated for 15 minutes and then 460 μL media was added. […] The plates were analyzed at several time points using 40× and 20× phase microscopes, and photos of the spheroids were taken.

U251MG spheroids = test: Glioblastoma spheroid assay; type: cell-based; details: 1 μM, U251MG spheroids in Matrigel, compared with control
Description: as §1

XPO1 = molecular target: T1, XPO1 (Homo sapiens, UniProt O14980); test: XPO1 degradation assay in HT1080 cells (Western blot); type: cell-based; details: five concentrations, 24 hours
T1 construct: endogenous in cells; host or cells: HT1080 (fibrosarcoma) cells
Excerpt: Western blot analysis of cellular lysates of the treated cells was used to determine the protein expression of XPO1. Beta-actin was used as a loading control.

NCI-H2030 = test: MTT assay panel; type: cell-based; details: Homo sapiens; NCI-H2030 cells, 72 hours
Description: (§2) Compound 124 was further tested against a panel of selected solid and hematological cancer cell lines and selected normal cell lines in an MTT assay. Briefly, the various cell lines above were plated at different densities on day 1. […] Cell Titer AQueous One was added to each well, and the plates were read in a plate reader at OD 495.

Colo-201 = test: MTT assay panel; type: cell-based; details: Homo sapiens; Colo-201 cells, 72 hours
Description: as §2

SHSY5Y = test: MTT assay panel; type: cell-based; details: Homo sapiens, SH-SY5Y; SHSY5Y cells, 72 hours
Description: as §2

TF-1 = test: MTT assay panel; type: cell-based; details: Homo sapiens; TF-1 cells, 72 hours
Description: as §2

SW-620 = test: MTT assay panel; type: cell-based; details: Homo sapiens; SW-620 cells, 72 hours
Description: as §2

U118MG = test: MTT assay panel; type: cell-based; details: Homo sapiens, U-118-MG; U118MG cells, 72 hours
Description: as §2

NCI-H358 = test: MTT assay panel; type: cell-based; details: Homo sapiens; NCI-H358 cells, 72 hours
Description: as §2

U-937 = test: MTT assay panel; type: cell-based; details: Homo sapiens; U-937 cells, 72 hours
Description: as §2

HTB-38 = test: MTT assay panel; type: cell-based; details: HTB-38 cells, 72 hours
Description: as §2

HCC-4006 = test: MTT assay panel; type: cell-based; details: Homo sapiens, HCC4006; HCC-4006 cells, 72 hours
Description: as §2

Calu-6 = test: MTT assay panel; type: cell-based; details: Homo sapiens; Calu-6 cells, 72 hours
Description: as §2

HCC-2935 = test: MTT assay panel; type: cell-based; details: Homo sapiens, HCC2935; HCC-2935 cells, 72 hours
Description: as §2

HCT116.1 = test: MTT assay panel; type: cell-based; details: HCT116.1 cells, 72 hours
Description: as §2

NCI-H747 = test: MTT assay panel; type: cell-based; details: Homo sapiens; NCI-H747 cells, 72 hours
Description: as §2

KG-1 = test: MTT assay panel; type: cell-based; details: Homo sapiens; KG-1 cells, 72 hours
Description: as §2

Colo-205 = test: MTT assay panel; type: cell-based; details: Homo sapiens; Colo-205 cells, 72 hours
Description: as §2

HCT116 = test: MTT assay panel; type: cell-based; details: Homo sapiens, HCT-116; HCT116 cells, 72 hours
Description: as §2

C6 = test: MTT assay panel; type: cell-based; details: Rattus norvegicus; C6 cells, 72 hours
Description: as §2

T1 sequence (O14980 whole entry): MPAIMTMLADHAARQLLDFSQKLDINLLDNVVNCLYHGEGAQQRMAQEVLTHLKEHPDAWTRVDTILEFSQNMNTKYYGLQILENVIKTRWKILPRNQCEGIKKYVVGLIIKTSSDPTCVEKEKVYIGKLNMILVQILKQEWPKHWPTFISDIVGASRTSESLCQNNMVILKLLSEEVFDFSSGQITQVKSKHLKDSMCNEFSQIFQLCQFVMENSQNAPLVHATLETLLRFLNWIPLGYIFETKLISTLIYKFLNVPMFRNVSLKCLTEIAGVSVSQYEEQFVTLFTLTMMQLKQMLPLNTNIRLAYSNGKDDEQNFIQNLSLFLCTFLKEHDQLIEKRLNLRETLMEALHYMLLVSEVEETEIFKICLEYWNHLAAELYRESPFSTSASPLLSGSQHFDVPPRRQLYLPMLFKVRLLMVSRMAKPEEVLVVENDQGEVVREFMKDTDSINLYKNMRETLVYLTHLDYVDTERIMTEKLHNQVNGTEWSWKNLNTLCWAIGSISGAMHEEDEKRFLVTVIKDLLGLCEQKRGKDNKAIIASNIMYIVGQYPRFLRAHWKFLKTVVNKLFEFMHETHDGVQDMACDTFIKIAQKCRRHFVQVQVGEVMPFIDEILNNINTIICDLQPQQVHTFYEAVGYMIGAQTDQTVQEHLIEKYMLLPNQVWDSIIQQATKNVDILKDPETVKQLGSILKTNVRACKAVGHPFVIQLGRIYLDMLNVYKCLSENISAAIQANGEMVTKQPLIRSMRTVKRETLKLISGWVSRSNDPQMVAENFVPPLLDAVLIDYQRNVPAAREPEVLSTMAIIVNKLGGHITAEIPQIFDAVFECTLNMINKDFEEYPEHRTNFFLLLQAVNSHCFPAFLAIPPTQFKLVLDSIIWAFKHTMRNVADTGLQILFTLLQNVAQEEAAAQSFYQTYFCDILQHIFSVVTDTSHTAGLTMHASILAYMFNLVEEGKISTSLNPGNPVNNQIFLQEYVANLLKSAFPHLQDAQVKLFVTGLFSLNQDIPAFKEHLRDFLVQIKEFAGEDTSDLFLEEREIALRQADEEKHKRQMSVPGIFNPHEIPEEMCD

For NC(=O)/C(=C/n1cnc(-c2cc(C(F)(F)F)cc(C(F)(F)F)c2)n1)c1cncnc1 [Compound 124, (E)-3-(3-(3,5-bis(trifluoromethyl)phenyl)-1H-1,2,4-triazol-1-yl)-2-(pyrimidin-5-yl)acrylamide], the “mean tumor volume compared with standard of care” value (Z-138 xenograft; 15 mg/kg PO daily, versus cyclophosphamide) was “compared favorably”, the mean tumor volume (Z-138 xenograft; 5 or 15 mg/kg PO daily, CB-17 SCID mice, compared to vehicle) was “mean tumor volume was reduced” and the mean tumor volume (MDA-MB-468 xenograft) was “mean tumor volume was reduced”. For the same compound, the spheroid cell growth (U87MG spheroids) was “significant reduction in cell growth”, the spheroid cell growth (U251MG spheroids) was “shrinking of the spheroid with complete elimination of any cell growth out of the sphere” and the “protein expression of XPO1” value (XPO1) was “degraded XPO1 in a dose-dependent manner”. For the same compound, the IC50 (NCI-H2030) was 2050 nM, the IC50 (Colo-201) was > 10000 nM and the IC50 (SHSY5Y) was 50 nM. The IC50 (TF-1) was 110 nM, the IC50 (SW-620) was 420 nM and the IC50 (U118MG) was 370 nM. For the same compound, the IC50 (NCI-H358) was 420 nM, the IC50 (U-937) was 250 nM and the IC50 (HTB-38) was > 10000 nM. The IC50 (HCC-4006) was 20 nM, the IC50 (Calu-6) was 1270 nM and the IC50 (HCC-2935) was 6700 nM. It also gave an IC50 (HCT116.1) of 200 nM, an IC50 (NCI-H747) of 70 nM and an IC50 (KG-1) of 90 nM. The IC50 (Colo-205) was 120 nM, the IC50 (HCT116) was 110 nM and the IC50 (C6) was 150 nM.
